Experimental data as given in patent US6821991B2, “2-substituted thiazolidinones as β-3 adrenergic receptor agonists” (Wyeth, priority 2000, dated 2004).
pEC50: −log10 of the molar value.

Key:
β3-adrenergic receptor = molecular target: T1, β3-adrenergic receptor (Homo sapiens, UniProt P13945); assay: cAMP accumulation (SPA) in CHO cells transfected with human β3 adrenergic receptor; format: cell-based; conditions: for pEC50: CHO cells expressing human β3-AR, cAMP, 30 min, 37° C., 10^-9 M to 10^-5 M; for IA(β3): maximal response relative to maximal response of isoproterenol at 10^-5 M
T1 construct: Full length β3 AR clones (402 amino acids) containing the last 6 amino acids of hβ3-AR are prepared; expressed in transfected cells; host or cells: CHO (Chinese hamster ovary) cells
Procedure: The ability of compounds of this invention to treat or inhibit disorders related to insulin resistance or hyperglycemia was established with representative compounds of this invention in the following standard pharmacological test procedures, which measured the binding selectivity to the β1, β2, and β3 adrenergic receptors. Binding to the receptors was measured in Chinese Hamster ovary (CHO) cells that were transfected with adrenergic receptors.
Cloning of Human β3-AR Genomic DNA: CDNA was constructed by ligating four polymerase chain reaction (PCR) products using the following primers: an ATG-Narl fragment, sense primer 5′-[…]3′, and anti-sense primer 5′[…]3′; a Narl-Accl fragment, 5′[…]3′ as sense and 5′[…]3′ as anti-sense primer; an Accli-Styl fragment, sense primer 5′[…]3′ and anti-sense primer 5′[…]3′ and a Styl-TAG fragment, with sense primer 5′[…]3′ and anti-sense primer 5′[…]3′. The corresponding primer sequences are described in Mantzoros, C. […] The four fragments are ligated into a pUC 18 plasmid (Gibco-BRL) and sequenced.
Binding Procedure: Clones expressing receptor levels of 70 to 110 fmoles/mg protein were used in the test procedures. CHO cells were grown in 24-well tissue culture plates in Dulbecco's Modified Eagle Media with 10% fetal bovine serum, MEM non-essential amino acids, Penicillin-Streptompycin and Geneticin. On the day of test procedure, growth medium was replaced with preincubation media (Dulbecco's Modified Eagle Media) and incubated for 30 minutes at 37° C. […] Test compounds were tested over a concentration range of 10^−9 M to 10^−5 M for β3 cells and 10^−8 to 10^−4 M for β1 and β2 transfected cells. Isoproterenol (10^−5 M) was used as an internal standard for comparison of activity. Cells were incubated at 37° C. on a rocker for 30 min with the β3 cells and 15 min for β1 and β2 cells. Incubation was stopped with the addition of 0.2N HCl and neutralized with 2.5N NaOH. The plates, containing the cells and neutralized media, were stored at −20 degrees celsius until ready to test for cAMP using the SPA test kit (Amersham).
Data Analysis and Results: Data collected from the SPA test procedure were analyzed as per cent of the maximal isoproterenol response at 10^−5 M. Activity curves were plotted using the SAS statistical and graphics software.

T1 sequence (P13945 whole entry): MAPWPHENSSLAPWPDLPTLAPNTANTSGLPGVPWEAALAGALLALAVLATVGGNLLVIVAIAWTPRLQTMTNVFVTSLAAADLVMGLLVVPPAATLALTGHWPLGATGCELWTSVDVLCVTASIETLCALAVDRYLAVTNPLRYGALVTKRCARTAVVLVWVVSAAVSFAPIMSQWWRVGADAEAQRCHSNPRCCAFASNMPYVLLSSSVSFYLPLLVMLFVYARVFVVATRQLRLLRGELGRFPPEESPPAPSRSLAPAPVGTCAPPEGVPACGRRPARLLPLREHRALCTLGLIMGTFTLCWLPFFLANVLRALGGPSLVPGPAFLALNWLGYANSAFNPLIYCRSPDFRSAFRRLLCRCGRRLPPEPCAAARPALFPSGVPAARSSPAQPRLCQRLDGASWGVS

SMILES	pEC50 (β3-adrenergic receptor)	IA(β3) (β3-adrenergic receptor)	melting point
CNC1=NC(=O)C(=Cc2ccc(N3CCC(NC[C@H](O)COc4cccc5[nH]c(=O)[nH]c45)CC3)cc2)S1 [Example 1, 4-((2S)-2-Hydroxy-3-{1-[4-(2-methylamino-4-oxo-4H-thiazol-5-ylidenemethyl)-phenyl]-piperidin-4-ylamino}-propoxy)-1,3-dihydrobenzoimidazol-2-one]	8.05	1.0	> 160 °C (dec.)
O=C1N=C(NCCN2CCOCC2)SC1=Cc1ccc(N2CCC(NC[C@H](O)COc3cccc4[nH]c(=O)[nH]c34)CC2)cc1 [Example 2, 4-[(2S)-2-Hydroxy-3-(1-{4-[2-(2-morpholin-4-ylethylamino)-4-oxo-4H-thiazol-5-ylidenemethyl]-phenyl}-piperidin-4-ylamino)-propoxy]-1,3-dihydrobenzoimidazol-2-one]	7.66	1.0	> 140 °C (dec.)
O=C1N=C(NC2CCN(Cc3ccccc3)CC2)SC1=Cc1ccc(N2CCC(NC[C@H](O)COc3cccc4[nH]c(=O)[nH]c34)CC2)cc1 [Example 3, 4-[(2S)-3-(1-{4-[2-(1-Benzyl-piperidin-4-ylamino)-4-oxo-4H-thiazol-5-ylidenemethyl]-phenyl}-piperidin-4-ylamino)-2-hydroxy-propoxy]-1,3-dihydro-benzoimidazol-2-one]	7.52	0.52	> 165 °C (dec.)
O=C1N=C(NC2CCN(Cc3ccccc3)CC2)SC1=Cc1ccc(N2CCC(NC[C@H](O)COc3ccc(O)cc3)CC2)cc1 [Example 4, 2-(1-Benzyl-piperidin-4-ylamino)-5-(4-{(2S)-4-[2-hydroxy-3-(4-hydroxy-phenoxy)-propylamino]-piperidin-1-yl}-benzylidene)-thiazol-4-one]	6.64	0.6	> 175 °C (dec.)
CCOC(=O)CCNC1=NC(=O)C(=Cc2ccc(N3CCC(NC[C@H](O)COc4cccc5[nH]c(=O)[nH]c45)CC3)cc2)S1 [Example 8, 3-[5-(4-{4-[(2S)-2-Hydroxy-3-(2-oxo-2,3-dihydro-1H-benzoimidazol-4-yloxy)-propylamino]-piperidin-1-yl}-benzylidene)-4-oxo-4,5-dihydro-thiazol-2-ylamino]-propionic acid ethyl ester]	8.10	0.75	> 120 °C (dec.)
O=C(O)CCNC1=NC(=O)C(=Cc2ccc(N3CCC(NC[C@H](O)COc4cccc5[nH]c(=O)[nH]c45)CC3)cc2)S1 [Example 9, 3-[5-(4-{4-[(2S)-2-Hydroxy-3-(2-oxo-2,3-dihydro-1H-benzoimidazol-4-yloxy)-propylamino]-piperidin-1-yl}-benzylidene)-4-oxo-4,5-dihydro-thiazol-2-ylamino]-propionic acid]	8.15	0.81	
O=C1N=C(NO)SC1=Cc1ccc(N2CCC(NC[C@H](O)COc3cccc4[nH]c(=O)[nH]c34)CC2)cc1 [Example 10, 4-((2S)-2-Hydroxy-3-{1-[4-(2-hydroxyamino-4-oxo-4H-thiazol-5-ylidenemethyl)-phenyl]-piperidin-4-ylamino}-propoxy)-1,3-dihydro-benzoimidazol-2-one]	7.72	0.69	201 to 213 °C (dec.)
O=C1N=C(N2CCCCC2)SC1=Cc1ccc(N2CCC(NC[C@H](O)COc3ccc(O)cc3)CC2)cc1 [Example 16, 5-(4-{4-[(2S)-2-Hydroxy-3-(4-hydroxy-phenoxy)-propylamino]-piperidin-1-yl}-benzylidene)-2-piperidin-1-yl-thiazol-4-one]	7.12	0.96	> 85 °C (dec.)
O=C1N=C(N2CCOCC2)SC1=Cc1ccc(N2CCC(NC[C@H](O)COc3cccc4[nH]c(=O)[nH]c34)CC2)cc1 [Example 18, 4-((2S)-2-Hydroxy-3-{1-[4-(2-morpholin-4-yl-4-oxo-4H-thiazol-5-ylidenemethyl)-phenyl]-piperidin-4-ylamino}-propoxy)-1,3-dihydro-benzoimidazol-2-one]	8.52	0.89	> 150 °C (dec.)

More lines, now with the values ahead:

pEC50 (β3-adrenergic receptor)	IA(β3) (β3-adrenergic receptor)	melting point	SMILES
		> 150 °C (dec.)	CN1CCN(C2=NC(=O)C(=Cc3ccc(N4CCC(NC[C@H](O)COc5cccc6[nH]c(=O)[nH]c56)CC4)cc3)S2)CC1 [Example 19, 4-[(2S)-2-Hydroxy-3-(1-{4-[2-(4-methyl-piperazin-1-yl)-4-oxo-4H-thiazol-5-ylidenemethyl]-phenyl}-piperidin-4-ylamino)-propoxy]-1,3-dihydro-benzoimidazol-2-one]
7.40	0.58	> 160 °C (dec.)	Cl.Cl.O=C1N=C(N2CCOCC2)SC1=Cc1ccc(N2CCC(NC[C@H](O)COc3ccccc3)CC2)cc1 [Example 22, 5-{4-[4-((2S)-2-Hydroxy-3-phenoxy-propylamino)-piperidin-1-yl]-benzylidene}-2-morpholin-4-yl-thiazol-4-one dihydrochloride salt]
7.12	0.78	> 100 °C (dec.)	O=C1N=C(N2CCOCC2)SC1=Cc1ccc(N2CCC(NC[C@H](O)COc3ccc(O)cc3)CC2)cc1 [Example 23, 5-(4-{4-[(2S)-2-Hydroxy-3-(4-hydroxy-phenoxy)-propylamino]-piperidin-1-yl}-benzylidene)-2-morpholin-4-yl-thiazol-4-one]
5.72	1.0	> 210 °C (dec.)	CN1CCN(C2=NC(=O)C(=Cc3ccc(N4CCC(NC[C@H](O)COc5ccc(O)cc5)CC4)cc3)S2)CC1 [Example 24, 5-(4-{4-[(2S)-2-Hydroxy-3-(4-hydroxy-phenoxy)-propylamino]-piperidin-1-yl}-benzylidene)-2-(4-methyl-piperazin-1-yl)-thiazol-4-one]
6.35	0.51	> 70 °C (dec.)	O=C1N=C(N2CCOCC2)SC1=Cc1ccc(N2CCC(NC[C@H](O)c3cccc(Cl)c3)CC2)cc1 [Example 25, 5-(4-{4-[(2R)-2-(3-Chloro-phenyl)-2-hydroxy-ethylamino]-piperidin-1-yl}-benzylidene)-2-morpholin-4-yl-thiazol-4-one]
6.68	0.84		Cl.O=C1N=C(N2CCCCC2)SC1=Cc1ccc(OCCNC[C@H](O)COc2ccc(O)cc2)cc1 [Example 31, 5-(4-{2-[(2S)-2-Hydroxy-3-(4-hydroxy-phenoxy)-propylamino]-ethoxy}-benzylidene)-2-piperidin-1-yl-thiazol-4-one hydrochloride salt]
7.06	0.33		Cl.O=C1N=C(N2CCCCC2)SC1=Cc1ccc(OCCNC[C@H](O)COc2ccccc2)cc1 [Example 32, 5-{4-[2-((2S)-2-Hydroxy-3-phenoxy-propylamino)-ethoxy]-benzylidene}-2-piperidin-1-yl-thiazol-4-one hydrochloride salt]
8.70	0.86		CS(=O)(=O)Nc1cc(C(O)CNCCOc2ccc(C=C3SC(N4CCCCC4)=NC3=O)cc2)ccc1O (stereo not drawn) [Example 33, N-[2-Hydroxy-5-(1-hydroxy-2-{2-[4-(4-oxo-2-piperidin-1-yl-4H-thiazol-5-ylidenemethyl)-phenoxy]-ethylamino}-ethyl)-phenyl]-methanesulfonamide]
